Results on one compound are retold here after ChEMBL document CHEMBL5247617, “4-Arylthiosemicarbazide derivatives - Pharmacokinetics, toxicity and anti-Toxoplasma gondii activity in vivo” (Eur J Med Chem, 2022).

Data set [1] in a line: Toxicity in BALB/c mouse assessed as hydropic degeneration at 20 mg/kg, po administered for 5 days and measured after 1 day by hematoxylin-eosin staining based microscopic analysis. It counts as organism-based. Conditions: in vivo, 120 h, time 5 day.
The nature of data set [2]: Toxicity in BALB/c mouse assessed as disseminated necrosis of hepatocytes at 20 mg/kg, po administered for 5 days and measured after 1 day by hematoxylin-eosin staining based microscopic analysis. It counts as organism-based. Particulars: in vivo, 120 h, time 5 day.
The nature of data set [3]: Toxicity in BALB/c mouse assessed as increase in creatinine level at 20 mg/kg, po administered for 5 days and measured after 1 day by colorimetric assay. Conditions: in vivo, 120 h, time 5 day. It counts as organism-based.
Data set [4] concerns Toxoplasma gondii. The experiment in a line: Antiparasitic activity against Toxoplasma gondii RH infected in BALB/c mouse assessed as reduction in number of bradyzoite gene copies in muscles at 20 mg/kg, po administered every 24 hrs for 5 days starting from 24 hrs post infection by real-time qPCR analysis. It counts as functional. Particulars: time 5 day.
The subject of data set [5] is Toxoplasma gondii. The experiment in a line: Antiparasitic activity against Toxoplasma gondii DX infected in C3H/HeOuJ mouse assessed as prolongation of survival at 20 mg/kg, po administered every 24 hrs for 5 days starting from 24 hrs post infection by Kaplan-Meier method. Particulars: time 5.0 day. It counts as functional, organism-based.
In data set [6] the test system is Toxoplasma gondii. As to the kind of experiment: Antiparasitic activity against Toxoplasma gondii RH infected in BALB/c mouse assessed as decrease in IFNgamma level in serum at 20 mg/kg, po administered every 24 hrs for 5 days starting from 24 hrs post infection by ELISA method. It counts as functional, organism-based. Conditions: time 5.0 day. In general terms: An ELISA detects its analyte on a solid surface through an enzyme-linked reagent.

A short description of data set [7]: Toxicity in BALB/c mouse assessed as increase in serum AST level at 20 mg/kg, po administered for 5 days and measured on day 1 and day 14 by ELISA method. Particulars: in vivo, 120 h, time 5 day. It counts as organism-based.
The test system of data set [8] is Toxoplasma gondii. The experiment in a line: Antiparasitic activity against Toxoplasma gondii RH infected in BALB/c mouse assessed as reduction of bradyzoite gene copies in brain at 20 mg/kg, po administered every 24 hrs for 5 days starting from 24 hrs post infection by real-time qPCR analysis. Conditions: time 5.0 day. It counts as functional, organism-based.
Data set [9] in a line: Toxicity in BALB/c mouse assessed as changes in size of hepatocyte nuclei at 20 mg/kg, po administered for 5 days and measured after 1 day by hematoxylin-eosin staining based microscopic analysis. It counts as organism-based. Conditions: hepatocytes, 120 h, time 5 day.
Data set [10] in a line: Toxicity in BALB/c mouse assessed as changes in liver weight at 20 mg/kg, po administered for 5 days and measured after 14 days. It counts as organism-based. Conditions: in vivo, 120 h, time 5 day.
A short description of data set [11]: Toxicity in BALB/c mouse assessed as increase in liver weight at 20 mg/kg, po administered for 5 days and measured after 1 day. It counts as organism-based. Particulars: in vivo, 120 h, time 5 day.
A short description of data set [12]: Toxicity in BALB/c mouse assessed as increase in serum ALT level at 20 mg/kg, po administered for 5 days and measured on day 1 and day 14 by ELISA method. It counts as organism-based. Conditions: in vivo, 120 h, time 5 day.
In data set [13] the test system is Toxoplasma gondii. As to the kind of experiment: Antiparasitic activity against Toxoplasma gondii RH infected in BALB/c mouse assessed as reduction of daughter tachyzoites in blood at 20 mg/kg, po administered every 24 hrs for 5 days starting from 24 hrs post infection by real-time qPCR analysis. It counts as functional, organism-based. Particulars: time 5.0 day. A general note: Real-time PCR tracks product formation cycle by cycle.

A short description of data set [14]: Toxicity in BALB/c mouse assessed as increase in creatinine level at 20 mg/kg, po administered for 5 days and measured after 14 days by colorimetric assay. It counts as organism-based. Particulars: in vivo, 120 h, time 5 day.
Data set [15] concerns Toxoplasma gondii. The experiment in a line: Antiparasitic activity against Toxoplasma gondii RH infected in BALB/c mouse assessed as prolongation of animal survival at 20 mg/kg, po administered every 24 hrs for 5 days starting from 24 hrs post infection by Kaplan-Meier method. It counts as functional, organism-based. Particulars: time 5.0 day.

SMILES strings stand for the structures. Activity calls are given as the source filed them. No cut-off for these calls is given here.

`CCc1nc(N)nc(N)c1-c1ccc(Cl)cc1` [PYRIMETHAMINE]: the Activity entry in data set [1] is given as “Toxic”; in data set [2], “Toxic”; in data set [3], “Toxic”; with Toxoplasma gondii [4], 14; in data set [7], “Toxic”; in [9] it was “Toxic”. In addition, the Activity entry in data set [10] is on record as “Non-Toxic”; in [11] it was “Toxic”; in data set [12], “Toxic”; in data set [14], “Toxic”. The result in the data set on Toxoplasma gondii [5], in the data set with Toxoplasma gondii [6], with Toxoplasma gondii [8], in the data set with Toxoplasma gondii [13] and with Toxoplasma gondii [15] was Active.
